Like-named read-outs stand apart in the source and are kept apart here.
What was measured:
A. suum QFR (complex II) [1] = molecular target: T1, A. suum QFR (complex II) (Ascaris suum, UniProt O44074+P92506+P92507); test: SQR activity assay of A. suum complex II (QFR) in mitochondrial fraction, UQ2 consumption at 278 nm; type: biochemical
T1 construct: from tissue; host or cells: adult Ascaris suum muscle, mitochondrial fraction
Method: (§1) The CP buffer containing the prepared mitochondrial fraction was replaced with 50 mM Tris–HCl buffer, pH 7.4 containing 1 mM disodium malonate, 210 mM mannitol, 10 mM sucrose, and 1 mM EDTA. Final concentrations of the A. suum and porcine mitochondria (quantified protein) were adjusted to 10 and 20 mg/mL, respectively. Mitochondrial fractions were separated in 50 μL aliquots, frozen by liquid nitrogen and stored at 193 K until use. Prior to assay, the mitochondrial suspensions were thawed on ice and SQR was reactivated by incubation at 298 K for 30 min in equal volume of 50 mM potassium phosphate buffer pH 7.4, containing 337 μM disodium malonate. SQR assay buffer composed of 50 mM potassium phosphate buffer pH 7.4, 0.1% SML, 2 mM potassium cyanide, and 60 μM of 2,3-dimethoxy-5-methyl-6-geranyl-1,4-benzoquinone (UQ2) was pre-equilibrated at 298 K for 20 min. The assay mixture was constituted by adding 15 μg (A. suum) or 30 μg (porcine) of reactivated mitochondrial fraction to the assay buffer and incubated for 3 min for background activity measurements. The SQR activity was initiated by the addition of 10 mM disodium succinate, and recorded as rate of UQ2 consumption, monitored at 278 nm (ε278 = 15 mM^−1·cm^−1) for three minutes in 1 mL quartz cuvettes with a Shimadzu UV-3000 dual wavelength spectrophotometer (Shimazu, Kyoto, Japan). Inhibition of SQR activities were assayed in the presence of varying concentration of inhibitors (diluted in DMSO) and the IC50s calculated as the concentration of inhibitor that caused 50% decrease in SQR activity relative to control (DMSO).

porcine SQR (complex II) = molecular target: T2, porcine SQR (complex II) (Sus scrofa, UniProt A5GZW8+D0VWV4+Q007T0); test: SQR activity assay of porcine complex II in mitochondrial fraction, UQ2 consumption at 278 nm; type: biochemical
T2 construct: from tissue; host or cells: porcine heart muscle, mitochondrial fraction
Method: as §1

bovine SQR = system: bovine SQR; design: method as in PMID 3209470, PMID 12515859, PMID 19242645; conditions: cited from earlier work
A. suum QFR (complex II) [2] = molecular target: T1, A. suum QFR (complex II); conditions: read-out: IC50 for A. suum QFR; cited from earlier work
[3] = porcine complex II, SQR assay, 298 K, pH 7.4, read-out: IC50 (SQR)

T2 sequence (Q007T0 29-280): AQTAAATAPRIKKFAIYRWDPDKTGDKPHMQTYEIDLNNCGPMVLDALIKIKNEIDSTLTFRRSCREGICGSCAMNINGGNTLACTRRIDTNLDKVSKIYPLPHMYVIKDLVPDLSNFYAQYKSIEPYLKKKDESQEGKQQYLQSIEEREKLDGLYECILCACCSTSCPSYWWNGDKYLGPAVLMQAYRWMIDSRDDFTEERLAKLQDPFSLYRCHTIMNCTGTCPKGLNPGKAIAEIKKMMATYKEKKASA
T2 sequence (D0VWV4 30-169): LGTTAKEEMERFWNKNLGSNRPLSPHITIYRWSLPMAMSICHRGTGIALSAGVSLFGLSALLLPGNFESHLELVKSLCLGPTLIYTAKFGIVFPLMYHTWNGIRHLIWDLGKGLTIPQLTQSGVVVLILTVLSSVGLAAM
T2 sequence (A5GZW8 57-159 limits assumed): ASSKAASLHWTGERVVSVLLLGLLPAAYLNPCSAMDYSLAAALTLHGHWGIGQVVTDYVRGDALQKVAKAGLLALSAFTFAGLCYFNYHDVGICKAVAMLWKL
T2 sequence (Q0QF01 43-664 partner): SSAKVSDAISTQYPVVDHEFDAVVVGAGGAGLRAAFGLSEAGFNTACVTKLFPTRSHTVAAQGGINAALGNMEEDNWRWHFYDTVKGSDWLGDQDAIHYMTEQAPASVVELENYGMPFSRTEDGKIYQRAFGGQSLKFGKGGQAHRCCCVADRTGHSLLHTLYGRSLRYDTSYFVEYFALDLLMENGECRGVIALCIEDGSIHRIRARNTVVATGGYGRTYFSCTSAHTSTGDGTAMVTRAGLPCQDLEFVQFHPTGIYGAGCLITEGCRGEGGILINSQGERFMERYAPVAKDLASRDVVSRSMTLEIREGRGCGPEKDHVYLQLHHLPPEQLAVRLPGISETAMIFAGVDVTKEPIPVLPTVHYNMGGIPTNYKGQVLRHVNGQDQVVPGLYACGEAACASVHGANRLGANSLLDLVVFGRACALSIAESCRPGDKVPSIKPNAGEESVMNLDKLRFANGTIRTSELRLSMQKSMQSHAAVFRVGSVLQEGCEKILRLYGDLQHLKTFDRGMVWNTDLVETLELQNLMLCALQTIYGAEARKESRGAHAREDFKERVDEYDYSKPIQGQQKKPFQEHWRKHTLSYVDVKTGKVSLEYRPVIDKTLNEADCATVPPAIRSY
T1 sequence (Q33862 19-645): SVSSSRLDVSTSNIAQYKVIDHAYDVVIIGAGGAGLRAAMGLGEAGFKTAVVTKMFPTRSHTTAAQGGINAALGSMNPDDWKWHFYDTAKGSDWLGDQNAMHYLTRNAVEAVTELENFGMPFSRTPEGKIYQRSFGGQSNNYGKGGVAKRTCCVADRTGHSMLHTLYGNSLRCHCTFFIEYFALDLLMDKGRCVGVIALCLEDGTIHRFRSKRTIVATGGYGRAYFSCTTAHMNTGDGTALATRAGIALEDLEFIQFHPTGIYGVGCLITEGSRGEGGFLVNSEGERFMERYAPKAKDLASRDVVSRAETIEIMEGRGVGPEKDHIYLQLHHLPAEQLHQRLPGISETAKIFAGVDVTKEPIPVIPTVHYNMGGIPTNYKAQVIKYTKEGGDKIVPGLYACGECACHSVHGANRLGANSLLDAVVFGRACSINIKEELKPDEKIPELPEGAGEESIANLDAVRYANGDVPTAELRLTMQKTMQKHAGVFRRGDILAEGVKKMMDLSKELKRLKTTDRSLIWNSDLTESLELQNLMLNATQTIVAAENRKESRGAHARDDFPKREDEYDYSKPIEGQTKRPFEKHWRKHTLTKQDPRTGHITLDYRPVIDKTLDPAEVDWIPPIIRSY
T1 sequence (P92507 26-156): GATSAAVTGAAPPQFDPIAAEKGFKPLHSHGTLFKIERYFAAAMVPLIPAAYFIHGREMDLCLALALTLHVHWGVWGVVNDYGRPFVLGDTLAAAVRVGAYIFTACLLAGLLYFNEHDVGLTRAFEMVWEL
T1 sequence (P92506 32-188): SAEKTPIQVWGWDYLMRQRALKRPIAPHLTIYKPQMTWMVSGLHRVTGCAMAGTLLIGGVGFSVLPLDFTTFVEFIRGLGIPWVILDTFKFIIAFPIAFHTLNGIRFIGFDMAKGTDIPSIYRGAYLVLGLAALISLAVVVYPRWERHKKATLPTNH
T1 sequence (O44074 22-282): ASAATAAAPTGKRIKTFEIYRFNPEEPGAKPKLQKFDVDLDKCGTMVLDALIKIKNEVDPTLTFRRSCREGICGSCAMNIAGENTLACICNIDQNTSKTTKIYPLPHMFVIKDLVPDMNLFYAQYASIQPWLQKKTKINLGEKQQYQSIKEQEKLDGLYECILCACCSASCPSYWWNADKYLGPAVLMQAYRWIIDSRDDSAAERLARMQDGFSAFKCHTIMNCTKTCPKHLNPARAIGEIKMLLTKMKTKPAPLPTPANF

Work on CC(C)Oc1cccc(NC(=O)c2ccccc2C(F)(F)F)c1 [flutolanil, N-[3-(isopropyloxy)phenyl]-2-(trifluoromethyl)benzamide, reference compound] yielded an IC50 (A. suum QFR (complex II) [1]) of 58.1 nM, an IC50 (A. suum QFR (complex II) [1]; IC50 (QFR), A. suum complex II, SQR assay, 298 K, pH 7.4) of 58 nM and an IC50 (porcine SQR (complex II)) of 45900 nM.
O=C(Nc1cccc(Oc2ccccc2)c1)c1ccccc1C(F)(F)F [derivative 4] showed an IC50 (A. suum QFR (complex II) [1]) of 79.4 nM and an IC50 (porcine SQR (complex II); [3]) of 16200 nM.
CC(C)Oc1cccc(NC(=O)c2ccccc2I)c1 [derivative 1] gave an IC50 (A. suum QFR (complex II) [1]) of 72.3 nM and an IC50 (porcine SQR (complex II); [3]) of 6430 nM.
With CN(C)Cc1cccc(NC(=O)c2ccccc2C(F)(F)F)c1 [derivative 3] the IC50 (A. suum QFR (complex II) [1]) was 3420 nM, the “increase of IC50 for A. suum QFR relative to flutolanil” value (A. suum QFR (complex II) [1]) was 59 fold and the IC50 (porcine SQR (complex II); [3]) was 256000 nM. For the same compound, the “increase of IC50 for porcine SQR relative to flutolanil” value (porcine SQR (complex II); versus flutolanil) was 6 fold.
Compound Cc1ccccc1C(=O)Nc1cccc(OC(C)C)c1 [derivative 2] has an IC50 (A. suum QFR (complex II) [1]) of 515 nM and an IC50 (porcine SQR (complex II); [3]) of 90000 nM.
In the case of O=C(Nc1cccc(-c2ccccc2)c1)c1ccccc1C(F)(F)F [derivative 5], the IC50 (A. suum QFR (complex II) [1]) is reported as 24.5 nM and the IC50 (porcine SQR (complex II); [3]) is reported as 8610 nM.
For COc1[nH]c(=O)c(C(=O)[C@@H](C)C[C@H](C)[C@@H](Cl)CCl)c(O)c1OC [Atpenin A5], the IC50 (bovine SQR) is listed as 3.6 nM and the IC50 (A. suum QFR (complex II) [2]) is listed as 12 nM.
O=C(Nc1cccc(Oc2c(F)c(F)c(F)c(F)c2F)c1)c1ccccc1C(F)(F)F [derivative 6] showed an IC50 (A. suum QFR (complex II) [1]) of 330 nM and an IC50 (porcine SQR (complex II); [3]) of 236000 nM.
With O=C(NCc1ccc(Cl)cc1Cl)c1ccccc1C(F)(F)F [NN28] the IC50 (A. suum QFR (complex II) [1]) was 28 nM and the “IC10 against porcine SQR” value (porcine SQR (complex II); porcine complex II, SQR assay) was over 90000 nM.
With CC(C)(C)c1ccc(CNC(=O)c2ccccc2C(F)(F)F)cc1 [NN23] the IC50 (A. suum QFR (complex II) [1]) was 5.5 nM, the “selectivity index (IC50 porcine SQR / IC50 A. suum QFR)” value (A. suum QFR (complex II) [1]; A. suum QFR versus porcine SQR) was “about 20,000 folds” and the IC50 (porcine SQR (complex II); [3]) was 111000 nM.

— article PMC4519900 (International Journal of Molecular Sciences, 2015)
